One experiment has as its target T1, OSC (Homo sapiens, UniProt P48449).
T1 sequence (P48449 1-732): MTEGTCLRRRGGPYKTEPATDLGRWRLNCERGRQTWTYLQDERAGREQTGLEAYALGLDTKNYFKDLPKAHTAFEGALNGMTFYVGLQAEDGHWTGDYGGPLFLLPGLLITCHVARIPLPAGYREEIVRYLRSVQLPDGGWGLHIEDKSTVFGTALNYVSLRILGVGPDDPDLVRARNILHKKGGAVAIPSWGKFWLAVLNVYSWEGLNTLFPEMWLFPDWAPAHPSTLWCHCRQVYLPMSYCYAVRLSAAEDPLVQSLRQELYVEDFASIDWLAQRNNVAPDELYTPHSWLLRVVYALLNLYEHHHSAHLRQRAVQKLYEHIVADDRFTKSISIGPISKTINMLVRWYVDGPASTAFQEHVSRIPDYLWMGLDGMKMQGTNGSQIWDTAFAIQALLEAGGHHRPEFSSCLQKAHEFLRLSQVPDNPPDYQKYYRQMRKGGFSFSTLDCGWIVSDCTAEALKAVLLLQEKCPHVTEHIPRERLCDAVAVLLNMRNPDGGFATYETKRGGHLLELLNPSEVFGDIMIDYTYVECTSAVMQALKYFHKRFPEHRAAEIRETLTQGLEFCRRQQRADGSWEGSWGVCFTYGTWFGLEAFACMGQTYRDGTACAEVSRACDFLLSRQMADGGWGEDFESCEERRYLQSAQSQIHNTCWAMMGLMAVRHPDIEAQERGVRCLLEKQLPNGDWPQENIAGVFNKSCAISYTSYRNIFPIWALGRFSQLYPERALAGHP
Conditions: value in parentheses not explained in the patent; cited from earlier work.

For experiment [1], the system named is T47-D breast cancer cells. The experiment in a line: SRB cell viability assay, T47-D. The following applies: 24 hours, dose-dependent, FIG. 2B. Format: cell-based. How it is done: (§1) The sulforhodamine B (SRB) assay was employed to evaluate the effect of OSC inhibitor Ro 48-8071 on viability of breast cancer and normal mammary gland cells with slight modification of the original procedure established at NCI. Accordingly, the cells were seeded in 96-well plates in 100 μl culture medium and incubated overnight at 37° C. with 5% CO2. […] The surviving or adherent cells were fixed in situ by withdrawing the growth medium and adding 100 μl of PBS and 100 μl of 50% cold trichloroacetic acid and then incubating at 4° C. for 1 h. The surviving cells were washed with ice-water, dried at room temperature (RT), and then stained with 50 μl 4% SRB for 8 min at RT. Unbound dye was removed by washing 5 times with cold 1% acetic acid, and the plates were dried at RT. Bound stain was solubilized with 150 μl 10 mM Tris buffer, and absorbance of samples were measured at 520 nm with a SpecTRA MAX 190 microplate reader (Sunnyvale, Calif.). In these experiments on BT-474, T47-D, and AG11132A cell lines, six wells were used for each concentration, and each experiment was performed at least twice.
(§2) The effect of OSC inhibition was evaluated in additional cancer cell lines as well. Cancer cell lines may be purchased from ATCC (Manassas, Va.). The SRB assay has been employed for determination of the inhibitory effects of RO 48-8071 on growth of different cancer cells. Cells were seeded into 96-well plates and incubated overnight at 37° C. with 5% CO2. The culture medium was removed after 24 hours, and cells were washed with DMEM/F12 medium and then treated with various concentrations of RO 48-8071 in 5% FBS culture medium for 24 and 48 hours. Surviving or adherent cells were fixed in situ by withdrawing the growth medium, adding 100 μl PBS and 100 μl 50% trichloroacetic acid and then incubating at 4° C. for one hour. Cells were washed with ice-cold water, dried at room temperature (RT), and then stained with 50 μl 4% SRB for eight minutes at RT. Unbound dye was removed by washing with cold 1% acetic acid for five times, and plates were dried at RT. Bound stain was solubilized with 150 μl 10 mM Tris buffer and absorbance of samples was read at 520 nm with a SpecTRA MAX 190 microplate reader (Molecular Devices, Sunnyvale, Calif.). Six wells were used for each concentration, and each experiment was performed two to three times.
Effect of RO 48-8071 on breast cancer cell line T47-D viability. […] The culture mediums employed 10% FBS DMEM/F12 for culture and 5% FBS DMEM/F12 for treatment.

The subject of experiment [2] is BT-474 breast cancer cells. Put plainly: SRB cell viability assay, BT-474. Format: cell-based, human. Conditions: BT-474, 24 hours, dose-dependent, FIG. 2A. How it is done:
as §1, §2
Effect of RO 48-8071 on breast cancer cell line BT-474 viability. […] The culture mediums employed 10% FBS DMEM/F12 for culture and 5% FBS DMEM/F12 for treatment.

Broadly, the IC50 is the concentration at which inhibition is half-maximal.

For `CN(CCCCOc1ccc(C(=O)c2ccc(Br)cc2)cc1)C1CC1`, on OSC, the IC50 was 19 nM.

Consider `C=CCC(C)CCCCCCOc1ccc2c(-c3ccc(Br)cc3)nn(C)c2c1` (stereo not shown), for which the IC50 at OSC is 19.6 nM.

As to `O=C(c1ccc(Cl)cc1)N1CCC(Cc2ccc(C3=NCCO3)cc2)CC1`, the IC50 at OSC is 36 nM.

With `O=C1C2CCN(CC2)C1(CO)CO` [PRIMA-1, 2,2-bis(hydroxymethyl)-3-quinuclidinone], the “effect on cell viability (SRB)” value in experiment [1] and in experiment [2] was “significantly inhibit the viability” each time.

Turning to `CCN(CC)CCO[C@H]1CC[C@@]2(C)C(=CC[C@@H]3[C@@H]2CC[C@]2(C)C(=O)CC[C@@H]32)C1` [U18666A, 3-beta-(2-(diethylamino)ethoxy)androst-5-en-17-one], the “effect on cell viability (SRB)” value in experiment [1] and in experiment [2] was “significantly inhibit the viability” throughout.

The values are drawn from patent publication US10143686B2, “Oxidosqualene cyclase as a protein target for anticancer therapeutics” (The Curators of the University of Missouri, priority 2010, dated 2018).
